pIC50: −log10 of the molar value.

Experimental findings from US20230139171A1 (SITA Information Networking Computing UK Limited, priority 2019, published 2023) are described below.

Common to all, as to format: cell-based
The target in one assay is T1, human TLR9 (Homo sapiens, UniProt Q9NR96).
T1 construct: host or cells: HEK-Blue cells
T1 sequence (Q9NR96 26-1032): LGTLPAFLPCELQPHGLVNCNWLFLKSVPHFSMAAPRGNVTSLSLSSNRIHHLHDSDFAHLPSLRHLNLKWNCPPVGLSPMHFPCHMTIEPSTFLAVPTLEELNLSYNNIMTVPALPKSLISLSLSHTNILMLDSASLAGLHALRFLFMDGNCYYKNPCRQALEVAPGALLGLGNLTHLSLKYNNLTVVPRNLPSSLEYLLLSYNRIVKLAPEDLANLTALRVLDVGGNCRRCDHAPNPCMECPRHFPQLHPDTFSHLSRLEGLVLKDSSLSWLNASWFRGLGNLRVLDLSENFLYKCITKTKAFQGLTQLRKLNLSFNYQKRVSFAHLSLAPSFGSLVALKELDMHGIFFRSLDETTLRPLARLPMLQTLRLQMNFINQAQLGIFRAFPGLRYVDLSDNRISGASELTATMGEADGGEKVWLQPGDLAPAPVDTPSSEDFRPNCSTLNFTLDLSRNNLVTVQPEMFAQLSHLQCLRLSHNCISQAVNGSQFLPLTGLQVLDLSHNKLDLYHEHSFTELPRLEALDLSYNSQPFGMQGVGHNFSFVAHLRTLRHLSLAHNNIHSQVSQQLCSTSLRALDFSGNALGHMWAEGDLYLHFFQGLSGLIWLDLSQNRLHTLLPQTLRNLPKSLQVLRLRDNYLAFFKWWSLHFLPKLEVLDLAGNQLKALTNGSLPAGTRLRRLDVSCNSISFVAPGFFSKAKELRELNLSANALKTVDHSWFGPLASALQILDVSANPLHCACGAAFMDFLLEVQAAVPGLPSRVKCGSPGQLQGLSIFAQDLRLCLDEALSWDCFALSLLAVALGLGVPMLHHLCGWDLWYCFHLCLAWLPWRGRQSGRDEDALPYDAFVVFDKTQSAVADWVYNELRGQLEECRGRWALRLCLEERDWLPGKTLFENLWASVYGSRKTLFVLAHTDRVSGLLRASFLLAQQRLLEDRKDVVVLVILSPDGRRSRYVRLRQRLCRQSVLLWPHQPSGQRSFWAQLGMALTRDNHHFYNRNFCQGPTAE
The assay can be described thus: TLR9 inhibition reporter assay (HEK-Blue cells, SEAP reporter, ODN2006 stimulation). The following applies: HEK-Blue cells overexpressing human TLR9, SEAP reporter, ODN2006 5 nM. A digest of the protocol: (§1)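 Screening used HEK-Blue cells overexpressing one human TLR (7, 8 or 9) and an IFN-β minimal promoter–NF-κB/AP-1 SEAP construct. Stimulation lasted 22 h at 37 °C with receptor-specific agonist: gardiquimod, R848 or ODN2006 at 7.5 μM, 15.9 μM and 5 nM.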

In a further assay the target is T2, human TLR8 (Homo sapiens, UniProt Q9NR97).
T2 construct: host or cells: HEK-Blue cells
T2 sequence (Q9NR97 27-1041): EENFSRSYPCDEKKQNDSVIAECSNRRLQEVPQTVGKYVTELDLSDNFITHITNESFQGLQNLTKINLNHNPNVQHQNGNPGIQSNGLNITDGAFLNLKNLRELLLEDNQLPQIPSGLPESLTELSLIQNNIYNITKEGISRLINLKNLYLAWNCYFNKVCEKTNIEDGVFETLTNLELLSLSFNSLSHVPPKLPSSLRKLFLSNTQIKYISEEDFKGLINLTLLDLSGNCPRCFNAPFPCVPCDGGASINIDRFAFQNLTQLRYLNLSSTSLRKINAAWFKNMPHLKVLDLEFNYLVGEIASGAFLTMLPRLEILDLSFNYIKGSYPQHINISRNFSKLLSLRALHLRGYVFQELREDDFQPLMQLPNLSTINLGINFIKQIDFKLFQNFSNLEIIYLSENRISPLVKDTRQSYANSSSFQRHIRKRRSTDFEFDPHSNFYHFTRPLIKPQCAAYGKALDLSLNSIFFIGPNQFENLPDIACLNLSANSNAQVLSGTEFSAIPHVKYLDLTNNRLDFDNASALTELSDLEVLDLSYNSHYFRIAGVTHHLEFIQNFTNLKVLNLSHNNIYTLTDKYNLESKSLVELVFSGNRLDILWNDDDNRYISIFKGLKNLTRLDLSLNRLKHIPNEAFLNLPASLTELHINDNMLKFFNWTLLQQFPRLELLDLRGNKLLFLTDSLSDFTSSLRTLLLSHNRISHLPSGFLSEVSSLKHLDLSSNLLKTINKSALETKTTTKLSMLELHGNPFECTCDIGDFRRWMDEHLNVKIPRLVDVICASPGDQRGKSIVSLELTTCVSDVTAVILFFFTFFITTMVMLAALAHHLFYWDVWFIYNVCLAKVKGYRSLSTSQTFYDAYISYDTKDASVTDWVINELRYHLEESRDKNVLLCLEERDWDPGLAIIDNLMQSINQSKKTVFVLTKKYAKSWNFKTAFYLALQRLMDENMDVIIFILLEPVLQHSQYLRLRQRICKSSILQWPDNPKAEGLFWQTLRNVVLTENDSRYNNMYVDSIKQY
The assay can be described thus: TLR8 inhibition reporter assay (HEK-Blue cells, SEAP reporter, R848 stimulation). To be noted: HEK-Blue cells overexpressing human TLR8, SEAP reporter, R848 15.9 μM; read-out: TLR8 IC50. A digest of the protocol: as §1

The target in a further assay is T3, human TLR7 (Homo sapiens, UniProt Q9NYK1).
T3 construct: host or cells: HEK-Blue cells
T3 sequence (Q9NYK1 27-1049): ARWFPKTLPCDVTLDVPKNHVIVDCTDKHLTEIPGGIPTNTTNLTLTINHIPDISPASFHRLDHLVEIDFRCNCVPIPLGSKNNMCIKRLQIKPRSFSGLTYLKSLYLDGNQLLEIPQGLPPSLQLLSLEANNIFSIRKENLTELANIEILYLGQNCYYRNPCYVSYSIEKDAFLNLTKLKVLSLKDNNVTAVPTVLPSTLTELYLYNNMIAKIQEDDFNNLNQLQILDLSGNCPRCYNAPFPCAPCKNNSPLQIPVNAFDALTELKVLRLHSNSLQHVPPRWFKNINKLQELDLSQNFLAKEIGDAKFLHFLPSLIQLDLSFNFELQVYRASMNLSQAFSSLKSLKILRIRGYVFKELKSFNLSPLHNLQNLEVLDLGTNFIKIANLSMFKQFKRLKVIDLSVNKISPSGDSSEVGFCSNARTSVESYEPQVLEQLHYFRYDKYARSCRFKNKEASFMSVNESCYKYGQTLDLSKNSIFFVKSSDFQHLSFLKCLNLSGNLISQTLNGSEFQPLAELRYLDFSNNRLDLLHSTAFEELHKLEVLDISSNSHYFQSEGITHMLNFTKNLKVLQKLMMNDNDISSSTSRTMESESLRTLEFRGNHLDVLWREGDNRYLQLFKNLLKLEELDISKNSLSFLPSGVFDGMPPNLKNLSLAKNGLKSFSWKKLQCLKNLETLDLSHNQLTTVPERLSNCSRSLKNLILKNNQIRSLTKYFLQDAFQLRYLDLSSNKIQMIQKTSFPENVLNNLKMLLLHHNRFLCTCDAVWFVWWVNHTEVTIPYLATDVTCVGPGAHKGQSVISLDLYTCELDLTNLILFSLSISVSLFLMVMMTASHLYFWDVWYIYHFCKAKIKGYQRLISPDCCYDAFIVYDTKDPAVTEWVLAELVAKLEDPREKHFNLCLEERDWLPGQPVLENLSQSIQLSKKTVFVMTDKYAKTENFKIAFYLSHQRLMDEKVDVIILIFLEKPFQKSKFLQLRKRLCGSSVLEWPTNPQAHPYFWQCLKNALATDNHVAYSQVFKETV
The assay can be described thus: TLR7 inhibition reporter assay (HEK-Blue cells, SEAP reporter, gardiquimod stimulation). The following applies: HEK-Blue cells overexpressing human TLR7, SEAP reporter, gardiquimod 7.5 μM; read-out: TLR7 IC50. The method, boiled down:
as §1
(In general: A reporter such as luciferase makes a cellular process visible.)

By pIC50 is commonly meant −log10 of the IC50, conventionally taken in molar units. For the molecule `Cc1cc(-c2[nH]c3sc(C4CCC(NC56CC(C5)C6)CC4)nc3c2C(C)C)cn2ncnc12` (single isomer, unassigned) [Example 139, N-(4-(6-isopropyl-5-(8-methyl-[1,2,4]triazolo[1,5-a]pyridin-6-yl)-4H-pyrrolo[3,2-d]thiazol-2-yl)cyclohexyl)bicyclo[1.1.1]pentan-1-amine], the pIC50 against human TLR9 was 4.76; on human TLR8, 7.58; on human TLR7 it was 8.30.

As for `Cc1c(-c2[nH]c3sc(C4CCC(NC5CCOCC5)CC4)nc3c2C(C)C)cn2ncnc2c1C` (single isomer, unassigned) [Example 201, N-(4-(5-(7,8-dimethyl-[1,2,4]triazolo[1,5-a]pyridin-6-yl)-6-isopropyl-4H-pyrrolo[3,2-d]thiazol-2-yl)cyclohexyl)tetrahydro-2H-pyran-4-amine], the negative logarithm of the IC50 (pIC50) against human TLR9 was 5.03; at human TLR8 it was 8.38; at human TLR7, 8.18.

Turning to `Cc1cc2ncnn2cc1-c1[nH]c2sc(C3CCC(NC4CCOCC4)CC3)nc2c1C(C)C` (single isomer, unassigned) [Example 160, N-(4-(6-isopropyl-5-(7-methyl-[1,2,4]triazolo[1,5-a]pyridin-6-yl)-4H-pyrrolo[3,2-d]thiazol-2-yl)cyclohexyl) tetrahydro-2H-pyran-4-amine], the results for the pIC50 at human TLR9, at human TLR8 and at human TLR7 were 5.28, 10.22 and 9.21, respectively.

For the molecule `Cc1c(-c2[nH]c3sc(C4CCN(CC(C)C)CC4)nc3c2C(C)C)cn2ncnc2c1C` [Example 52, 5-(7,8-dimethyl-[1,2,4]triazolo[1,5-a]pyridin-6-yl)-2-(1-isobutylpiperidin-4-yl)-6-isopropyl-4H-pyrrolo[3,2-d]thiazole], the pIC50 is 4.75 against human TLR9, 8.37 at human TLR8 and 8.54 on human TLR7.

Consider `Cc1cc(-c2[nH]c3nc(C4CCNCC4)sc3c2C(C)C)cn2ncnc12` [Example 411, 6-isopropyl-5-(8-methyl-[1,2,4]triazolo[1,5-a]pyridin-6-yl)-2-(piperidin-4-yl)-4H-pyrrolo[2,3-d]thiazole], for which the pIC50 was 5.51 at human TLR9, 6.70 on human TLR8 and 8.74 on human TLR7.

With `Cc1c(-c2[nH]c3sc(C4CCC(NCC(N)=O)CC4)nc3c2C(C)C)cn2ncnc2c1C` (stereo not drawn) [Example 210, 2-((4-(5-(7,8-dimethyl-[1,2,4]triazolo[1,5-a]pyridin-6-yl)-6-isopropyl-4H-pyrrolo[3,2-d]thiazol-2-yl)cyclohexyl)amino)acetamide], the figures for the pIC50 against human TLR9, on human TLR8 and on human TLR7 were 4.62, 8.91 and 8.74, respectively.

Take `Cc1c(-c2[nH]c3sc(N4C[C@@H](C)NC[C@@H]4C)nc3c2C(C)C)cn2ncnc2c1C` [Example 309, 5-(7,8-dimethyl-[1,2,4]triazolo[1,5-a]pyridin-6-yl)-2-((2S,5R)-2,5-dimethylpiperazin-1-yl)-6-isopropyl-4H-pyrrolo[3,2-d]thiazole]: the pIC50 against human TLR9 was 4.84; on human TLR8, 8.38; at human TLR7 it was 8.18.

Turning to `Cc1c(-c2[nH]c3sc(C4CCC(N(C)C(C)C)CC4)nc3c2C(C)C)cn(C)c(=O)c1C` (single isomer, unassigned) [Example 261, 5-(6-isopropyl-2-(4-(isopropyl(methyl)amino)cyclohexyl)-4H-pyrrolo[3,2-d]thiazol-5-yl)-1,3,4-trimethylpyridin-2(1H)-one], the pIC50 on human TLR9 is 4.77; on human TLR8, 8.65; at human TLR7 it was 8.07.

In the case of `CC(C)c1c(-c2cn(C)c3ncccc23)[nH]c2sc(C3CCC(NCC(C)(C)O)CC3)nc12` (single isomer, unassigned) [Example 182, 1-((4-(6-isopropyl-5-(1-methyl-1H-pyrrolo[2,3-b]pyridin-3-yl)-4H-pyrrolo[3,2-d]thiazol-2-yl)cyclohexyl)amino)-2-methylpropan-2-ol], the results for the pIC50 on human TLR9, on human TLR8 and on human TLR7 were 4.87, 9.12 and 8.76, respectively.

In the case of `Cc1c(-c2[nH]c3sc(C4CCC(N5CC6(C5)CS(=O)(=O)C6)CC4)nc3c2C(C)C)cn2ncnc2c1C` (single isomer, unassigned) [Example 234, 6-(4-(5-(7,8-dimethyl-[1,2,4]triazolo[1,5-a]pyridin-6-yl)-6-isopropyl-4H-pyrrolo[3,2-d]thiazol-2-yl)cyclohexyl)-2-thia-6-azaspiro[3.3]heptane 2,2-dioxide], the pIC50 is below 4.30 on human TLR9, 7.22 on human TLR8 and 7.82 at human TLR7.

Consider `CNCCNC1CCC(c2nc3c(C(C)C)c(-c4cc(OC)c5ncnn5c4)[nH]c3s2)CC1` (single isomer, unassigned) [Example 170, N1-(4-(6-isopropyl-5-(8-methoxy-[1,2,4]triazolo[1,5-a]pyridin-6-yl)-4H-pyrrolo[3,2-d]thiazol-2-yl)cyclohexyl)-N2-methylethane-1,2-diamine], for which the results for the pIC50 at human TLR9, at human TLR8 and on human TLR7 were 5.75, 8.33 and 8.62, respectively.
